Measured values reported in patent publication US9527840B2, “Substituted-quinoxaline-type piperidine compounds and the uses thereof” (priority 2007, dated 2016).

Assays:
kappa opioid receptor = kappa opioid receptor (Homo sapiens, UniProt P41145); test: In vitro kappa-opioid receptor functional assay ([35S]GTPγS); type: biochemical
hERG channel = target: T1, hERG channel (Homo sapiens, UniProt Q12809); test: In vitro hERG (human ether a-go-go gene) assay; type: cell-based
T1 construct: expressed in transfected cells
T1 sequence (Q12809 whole entry): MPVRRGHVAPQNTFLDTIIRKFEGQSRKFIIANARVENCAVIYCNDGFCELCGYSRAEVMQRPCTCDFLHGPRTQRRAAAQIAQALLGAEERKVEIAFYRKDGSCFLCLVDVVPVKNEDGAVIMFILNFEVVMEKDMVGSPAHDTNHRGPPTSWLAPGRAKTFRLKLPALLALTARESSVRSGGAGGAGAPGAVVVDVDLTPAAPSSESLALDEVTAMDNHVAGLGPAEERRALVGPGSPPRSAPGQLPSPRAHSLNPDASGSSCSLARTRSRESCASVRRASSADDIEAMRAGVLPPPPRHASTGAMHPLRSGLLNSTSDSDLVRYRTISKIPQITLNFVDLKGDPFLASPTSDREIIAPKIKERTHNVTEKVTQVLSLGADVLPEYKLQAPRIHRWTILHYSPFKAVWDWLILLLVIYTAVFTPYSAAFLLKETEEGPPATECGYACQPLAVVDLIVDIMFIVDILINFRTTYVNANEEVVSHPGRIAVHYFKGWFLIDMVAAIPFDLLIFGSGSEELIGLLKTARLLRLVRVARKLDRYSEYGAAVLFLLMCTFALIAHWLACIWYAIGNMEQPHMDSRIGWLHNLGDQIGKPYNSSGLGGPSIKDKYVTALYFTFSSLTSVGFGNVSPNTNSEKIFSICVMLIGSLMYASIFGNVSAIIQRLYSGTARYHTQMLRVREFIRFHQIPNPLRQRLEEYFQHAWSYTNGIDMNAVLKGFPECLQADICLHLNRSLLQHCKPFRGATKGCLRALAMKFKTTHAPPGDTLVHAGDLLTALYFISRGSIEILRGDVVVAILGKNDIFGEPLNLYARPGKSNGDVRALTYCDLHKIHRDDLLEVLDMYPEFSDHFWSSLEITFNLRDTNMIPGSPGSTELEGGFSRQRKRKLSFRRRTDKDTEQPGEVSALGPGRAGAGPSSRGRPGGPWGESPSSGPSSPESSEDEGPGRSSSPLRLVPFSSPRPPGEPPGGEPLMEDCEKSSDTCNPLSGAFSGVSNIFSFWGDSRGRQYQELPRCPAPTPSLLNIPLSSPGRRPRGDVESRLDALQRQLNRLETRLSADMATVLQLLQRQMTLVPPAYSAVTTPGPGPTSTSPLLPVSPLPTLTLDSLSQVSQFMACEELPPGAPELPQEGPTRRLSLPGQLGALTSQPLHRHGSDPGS

[1] = rat, in vivo
[2] = test system: guinea pig purkinje fibers

Sequence of kappa opioid receptor (P41145 whole entry): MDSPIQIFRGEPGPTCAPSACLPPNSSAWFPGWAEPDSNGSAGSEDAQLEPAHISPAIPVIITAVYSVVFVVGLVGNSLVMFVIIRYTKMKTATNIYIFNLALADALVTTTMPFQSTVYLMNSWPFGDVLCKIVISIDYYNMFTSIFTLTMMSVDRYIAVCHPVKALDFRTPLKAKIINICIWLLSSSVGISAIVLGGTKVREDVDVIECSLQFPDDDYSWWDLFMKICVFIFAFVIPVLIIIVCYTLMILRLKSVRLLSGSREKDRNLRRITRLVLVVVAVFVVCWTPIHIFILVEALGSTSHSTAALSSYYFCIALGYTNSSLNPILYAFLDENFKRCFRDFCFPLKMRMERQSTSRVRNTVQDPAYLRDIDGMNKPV

Structure (SMILES)	EC50 (kappa opioid receptor) [µM]	cardiovascular side effects (hERG assay) (hERG channel)	abnormal behavioral side effects, such as sedation, hyperactivity and/or hypoactivity [1]	cardiovascular side effects (APD) [2]
O=C(O)C1CCN(c2nc3ccccc3n([C@H]3C[C@H]4CC[C@@H](C3)N4C3CCCCCCC3)c2=O)CC1 [Compound 99, 1-(4-((endo)-8-cyclooctyl-8-azabicyclo[3.2.1]octan-3-yl)-3-oxo-3,4-dihydroquinoxalin-2-yl)piperidine-4-carboxylic acid]	> 100	–	–	–
O=C(O)c1nc2ccccc2n([C@H]2C[C@H]3CCC[C@@H](C2)N3C2CC3CCCC(C3)C2)c1=O (stereo partly drawn) [Compound 362, 4-((endo)-9-((exo)-bicyclo[3.3.1]nonan-3-yl)-9-azabicyclo[3.3.1]nonan-3-yl)-3-oxo-3,4-dihydroquinoxaline-2-carboxylic acid]	–	reduced cardiovascular side effects	reduced abnormal behavioral side effects	reduced cardiovascular side effects
